Results reported in patent publication US4874752A, “Benzoquinone derivatives and production thereof” (Takeda Chemical Industries, Ltd., priority 1982, dated 1989).

Experiments:
5-lipoxygenase = target: T1, 5-lipoxygenase (Rattus norvegicus, UniProt P12527); assay: Inhibition of 5-lipoxygenase activity in RBL-1 cells (5-HETE production); format: cell-based; details: 37° C., 20 minutes, arachidonic acid + A-23187
T1 construct: endogenous in cells; host or cells: RBL-1
T1 sequence (P12527 1-673): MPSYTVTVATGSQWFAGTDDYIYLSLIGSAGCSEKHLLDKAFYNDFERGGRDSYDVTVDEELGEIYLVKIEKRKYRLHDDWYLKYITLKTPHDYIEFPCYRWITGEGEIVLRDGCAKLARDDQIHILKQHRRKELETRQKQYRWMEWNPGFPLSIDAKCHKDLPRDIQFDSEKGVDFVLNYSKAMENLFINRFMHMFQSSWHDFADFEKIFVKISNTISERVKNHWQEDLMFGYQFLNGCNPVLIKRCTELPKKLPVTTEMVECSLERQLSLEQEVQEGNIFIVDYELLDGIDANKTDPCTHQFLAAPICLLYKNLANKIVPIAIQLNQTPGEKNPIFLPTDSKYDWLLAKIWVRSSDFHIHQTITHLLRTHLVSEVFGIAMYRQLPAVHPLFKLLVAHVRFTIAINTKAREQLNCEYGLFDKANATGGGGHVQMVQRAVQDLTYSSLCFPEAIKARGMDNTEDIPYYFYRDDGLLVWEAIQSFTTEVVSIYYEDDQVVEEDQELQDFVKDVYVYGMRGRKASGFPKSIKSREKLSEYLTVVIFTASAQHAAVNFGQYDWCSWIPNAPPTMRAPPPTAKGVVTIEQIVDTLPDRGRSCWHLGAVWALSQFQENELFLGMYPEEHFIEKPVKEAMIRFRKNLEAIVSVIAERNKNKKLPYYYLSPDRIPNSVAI
Description: 10^7 RBL-1 cells (rat basophilic leukemia cells) are suspended in 0.5 ml of MCM (mast cell medium), and, then, a test solution (0.5 ml of MCM, 50 μg of arachidonic acid, 10 μg of A-23187 and 1 μM or 10 μM of the quinone compound) is added. The reaction is conducted at 37° C. for 20 minutes. After completion of the reaction, 4 ml of ethanol including 1,4-dimethoxy-2-methyl-3-(3-methoxypropyl)naphthalene are added (0.5 μg/ml) are added as an internal reference. After shaking well, the mixture is allowed to stand at room temperature for 10 minutes. Then, the mixture was centrifuged (2000 r.p.m./min.) for 10 minutes and the supernatant is separated. This supernatant is concentrated under reduced pressure to about 200 μl. To the concentrate is added a high performance liquid chromatography solvent [CH3 CN(1500): CH3 OH(500): water (1100): acetic acid(2); pH 5.6 (adjusted with aqueous ammonia)] to make a total of 1 ml. A 200 μl portion of this solution is taken and 5-HETE (5-hydroxyeicosatetraenoic acid) is assayed by high performance liquid chromatography. The degree of inhibition of 5-HETE production (IE) is expressed in terms of […], where a is the peak height or area after correction with the peak of the internal reference standard in the absence of the quinone compound and b is the peak height or area after correction with the peak of the internal reference standard in the presence of the quinone compound.

collagen biosynthesis = assay: Inhibitory activity of collagen biosynthesis (collagen content of the uterus, with 17β-estradiol); format: in vivo, SD strain rats (female, 3 weeks old); details: for Degree of inhibition: uterus collagen
Description: In accordance with the method of R. A. Salvador et al. [Arch. Biochem. Biophys. 174, 382 (1976)], 0.2 mg/kg of each test compound was intraperitoneally administered to SD strain rats (.female., 3 weeks old) once a day for 6 days. After that, the collagen content of the uterus was determined and compared with that of control experiment.
*Rats were used 3 animals as one group; initial body weights 41 ± 2- 4

[1] = 17β-estradiol + compound, 0.2 mg/kg i.p. once a day for 6 days

| SMILES | inhibition at 1 µM (5-lipoxygenase) [%] | inhibition at 10 µM (5-lipoxygenase) [%] | Collagen content of uterus (collagen biosynthesis; [1]) [mg] | Degree of inhibition (collagen biosynthesis; [1]) [%] | also measured |
| --- | --- | --- | --- | --- | --- |
| COC1=C(OC)C(=O)C(COc2ccc(/C=C/C(=O)O)cc2)=C(C)C1=O [drawing 32] | – | – | 2.77 ± 0.25 | 38 | – |
| COC1=C(OC)C(=O)C(COc2ccc(/C=C/C(=O)O)cc2)=C(C)C1=O [drawing 37] | 73.9 | 83.5 | – | – | – |
| COC1=C(OC)C(=O)C(CCCCCCCCCC(=O)N[C@@H](CCCNC(=N)N)C(=O)O)=C(C)C1=O [n: 9, Z:CONHArg, 10-(2,3-dimethoxy-5-methyl-1,4-benzoquinon-6-yl)decanoyl-L-arginine] | – | – | 2.86 ± 0.75 | 33 | – |
| C[C@]12CC[C@@H]3c4ccc(O)cc4CC[C@H]3[C@@H]1CC[C@@H]2O [17β-estradiol, reference compound] | – | – | – | – | Collagen content of uterus (collagen biosynthesis; 17β-estradiol alone): 3.45 ± 0.11 mg; Body weight of rats (collagen biosynthesis; 17β-estradiol alone, 3 rats per group, initial body weight about 41 g): 73 ± 3 g |
| COC1=C(OC)C(=O)C(/C=C/C(C)=O)=C(C)C1=O [drawing 31] | – | – | 2.98 ± 0.15 | 26 | – |
| COC1=C(OC)C(=O)C(/C=C/C(=O)O)=C(C)C1=O [drawing 30] | – | – | 2.53 ± 0.28 | 51 | – |
| NC1=NN(c2cccc(C(F)(F)F)c2)CC1 [BW755C, reference compound] | 21.8 | 39.1 | – | – | – |

The next lines start with results.

| inhibition at 1 µM (5-lipoxygenase) [%] | inhibition at 10 µM (5-lipoxygenase) [%] | SMILES | Collagen content of uterus (collagen biosynthesis; [1]) [mg] | Degree of inhibition (collagen biosynthesis; [1]) [%] | also measured |
| --- | --- | --- | --- | --- | --- |
| 70.1 | 81.5 | COC1=C(C)C(=O)C(COc2ccc(CC(=O)O)cc2)=C(C)C1=O | – | – | – |
| 76.6 | 85.8 | COC1=C(OC)C(=O)C(CC=C(C)COc2ccc(/C=C/C(=O)O)cc2)=C(C)C1=O | – | – | – |
| 63.5 | 79.2 | CC1=C(C)C(=O)C(c2nc3cc(C(C)C(=O)O)ccc3o2)=C(C)C1=O (centres unmarked) | – | – | – |
| 72 | 83.1 | COC1=C(OC)C(=O)C(CCCCOc2ccc(/C=C/C(=O)O)cc2)=C(C)C1=O | – | – | – |
| 35.9 | 39.4 | CCCCCC#CCC#CCC#CCC#CCCCC(=O)O [ETYA, Eicosatetraynoic acid, reference compound] | – | – | – |
| 72.2 | 83.3 | COC1=C(OC)C(=O)C(CC=C(C)COc2ccc(CC(=O)O)cc2)=C(C)C1=O [drawing 38] | – | – | – |
